According to paper doi:10.1101/2024.05.07.592940v1 (biorxiv, 2024):
Numbering of substitutions follows the chain as printed.

Tests used:
[1] = biological target: T1, PTPN2 (Homo sapiens, UniProt P17706); test: pNPP hydrolysis, absorbance […] nm; format: biochemical
T1 sequence (P17706 1-314): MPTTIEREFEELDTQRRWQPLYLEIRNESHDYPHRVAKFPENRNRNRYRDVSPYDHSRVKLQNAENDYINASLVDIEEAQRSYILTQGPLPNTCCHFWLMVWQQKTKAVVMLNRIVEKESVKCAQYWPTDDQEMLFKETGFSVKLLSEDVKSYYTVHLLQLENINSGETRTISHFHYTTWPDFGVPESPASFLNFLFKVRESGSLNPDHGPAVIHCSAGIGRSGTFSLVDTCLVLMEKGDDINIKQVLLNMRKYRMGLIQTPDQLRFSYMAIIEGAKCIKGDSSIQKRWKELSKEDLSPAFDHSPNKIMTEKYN

[2] = biological target: T2, PTP1B (Homo sapiens, UniProt P18031); test: pNPP hydrolysis, absorbance […] nm; format: biochemical
T2 sequence (P18031 1-321): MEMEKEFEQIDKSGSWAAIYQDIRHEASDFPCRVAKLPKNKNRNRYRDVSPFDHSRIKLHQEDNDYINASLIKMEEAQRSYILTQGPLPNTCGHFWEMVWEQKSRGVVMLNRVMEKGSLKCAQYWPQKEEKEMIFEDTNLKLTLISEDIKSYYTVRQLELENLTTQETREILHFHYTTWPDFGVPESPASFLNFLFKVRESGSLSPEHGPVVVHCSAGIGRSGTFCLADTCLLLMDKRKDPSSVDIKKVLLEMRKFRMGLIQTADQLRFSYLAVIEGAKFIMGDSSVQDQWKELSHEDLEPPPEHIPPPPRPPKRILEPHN

[3] = biological target: T3, PTPN2 (Homo sapiens, UniProt P17706, C216G); test: microscale thermophoresis; format: binding
T3 sequence (P17706 1-314 C216G): T1 sequence (P17706 1-314) with C216G

[4] = biological target: T1, PTPN2; test: microscale thermophoresis; format: binding

| IC50 [1] [µM] | IC50 [2] [µM] | Kd [3] [µM] | Kd [4] [µM] | SMILES |
| --- | --- | --- | --- | --- |
| 3.23 | 4.66 | – | – | O=c1sn(-c2cccc3ccccc23)c(=O)n1Cc1ccccc1 [NP-12] |
| 0.324 | 4.27 | 31.6 | 0.646 | O=c1sn(CCOc2ccc([N+](=O)[O-])cc2)c(=O)n1Cc1ccccc1 [K73] |
